Values quoted from earlier work, collected in PubChem BioAssay AID1259409 (Chemical Carcinogenesis Research Information System (CCRIS), 2018).

Tested on: rodent chemically induced tumor inhibition, incidence and multiplicity
Test: CCRIS tumor inhibitor studies
Settings: Carcinogen: DIETHYLNITROSAMINE, 55-18-5, 684-93-5, N-BUTYL-N-(4-HYDROXYBUTYL)NITROSAMINE, 3817-11-6, Carcinogen: DIETHYLNITROSAMINE, 55-18-5, 684-93-5, N-BUTYL-N-(4-HYDROXYBUTYL)NITROSAMINE, 3817-11-6, Dose [Inhibitor]: 0, Route [Inhibitor]: ORAL, Species: RAT

SMILES: CCCCCCCCCCCCC(=O)COC1=C(O)C(=O)O[C@@H]1[C@@H](O)CO
- tumour outcome (control, treated, inhibition, significance) (N-METHYL-N-NITROSOUREA, DIMETHY, N-METHYL-N-NITROSOUREA, DIMETHY, 1% IN THE DIET FOR 24 WK BEGINNING 1 DAY POST CARCINOGEN TREATMENT (STUDY DURATION: 28 WK), Strain/Sex: F344/MALE, Target Tissue: Type of Lesion: URINARY BLADDER: PAPILLOMA, Dose [Carcinogen]: 100 MG/KG BW DEN ONCE FOLLOWED BY 20 MG/KG BW MNU 4 TIMES AND 0.05% BBN IN DRINKING WATER DURING FIRST 2 WK THEN 40 MG/K, Promoter: NONE USED): 7%, 0%, 100%, not significant
- tumour outcome (control, treated, inhibition, significance) (N-METHYL-N-NITROSOUREA, DIMETHY, N-METHYL-N-NITROSOUREA, DIMETHY, 1% IN THE DIET FOR 30 D BEGINNING 1 D PRIOR TO CARCINOGEN TREATMENT (STUDY DURATION: 28 WK), Strain/Sex: F344/MALE, Target Tissue: Type of Lesion: THYROID: CARCINOMA, Dose [Carcinogen]: 100 MG/KG BW DEN ONCE FOLLOWED BY 20 MG/KG BW MNU 4 TIMES AND 0.05% BBN IN DRINKING WATER DURING FIRST 2 WK THEN 40 MG/K, Promoter: NONE USED): 7%, 0%, 100%, not significant
- tumour outcome (control, treated, inhibition, significance) (N-METHYL-N-NITROSOUREA, DIMETHY, N-METHYL-N-NITROSOUREA, DIMETHY, 1% IN THE DIET FOR 30 D BEGINNING 1 DAY PRIOR TO CARCINOGEN TREATMENT (STUDY DURATION: 28 WK), Strain/Sex: F344/ MALE, Target Tissue: Type of Lesion: URINARY BLADDER: PAPILLOMA, Dose [Carcinogen]: 100 MG/KG BW DEN ONCE FOLLOWED BY 20 MG/KG BW MNU 4 TIMES AND 0.05% BBN IN DRINKING WATER DURING FIRST 2 WK THEN 40 MG/K, Promoter: NONE USED): 7%, 0%, 100%, not significant
- tumour outcome (control, treated, inhibition, significance) (N-METHYL-N-NITROSOUREA, DIMETHY, N-METHYL-N-NITROSOUREA, DIMETHY, 1% IN THE DIET FOR 30 D BEGINNING 1 DAY PRIOR TO CARCINOGEN TREATMENT (STUDY DURATION: 28 WK), Strain/Sex: F344/MALE, Target Tissue: Type of Lesion: LARGE INTESTINE: CARCINOMA, Dose [Carcinogen]: 100 MG/KG BW DEN ONCE FOLLOWED BY 20 MG/KG BW MNU 4 TIMES AND 0.05% BBN IN DRINKING WATER DURING FIRST 2 WK THEN 40 MG/K, Promoter: NONE USED): 7%, 7%, 0%, not significant
- tumour outcome (control, treated, inhibition, significance) (N-METHYL-N-NITROSOUREA, DIMETHY, N-METHYL-N-NITROSOUREA, DIMETHY, 1% IN THE DIET FOR 30 D BEGINNING 1 DAY PRIOR TO CARCINOGEN TREATMENT (STUDY DURATION: 28 WK), Strain/Sex: F344/MALE, Target Tissue: Type of Lesion: SMALL INTESTINE: ADENOMA, Dose [Carcinogen]: 100 MG/KG BW DEN ONCE FOLLOWED BY 20 MG/KG BW MNU 4 TIMES AND 0.05% BBN IN DRINKING WATER DURING FIRST 2 WK THEN 40 MG/K, Promoter: NONE USED): 33%, 21%, 36%, not significant
- tumour outcome (control, treated, inhibition, significance) (N-METHYL-N-NITROSOUREA, DIMETHY, N-METHYL-N-NITROSOUREA, DIMETHY, 1% IN THE DIET FOR 30 DAYS BEGINNING 1 D PRIOR TO CARCINOGEN TREATMENT (STUDY DURATION: 28 WK), Strain/Sex: F344/MALE, Target Tissue: Type of Lesion: SMALL INTESTINE: CARCINOMA, Dose [Carcinogen]: 100 MG/KG BW DEN ONCE FOLLOWED BY 20 MG/KG BW MNU 4 TIMES AND 0.05% BBN IN DRINKING WATER DURING FIRST 2 WK THEN 40 MG/K, Promoter: NONE USED): 7%, 14%, -100%, not significant
- tumour outcome (control, treated, inhibition, significance) (N-METHYL-N-NITROSOUREA, DIMETHY, N-METHYL-N-NITROSOUREA, DIMETHY, 1% IN THE DIET FOR 30 DAYS BEGINNING 1 DAY PRIOR TO CARCINOGEN TREATMENT (STUDY DURATION: 28 WK), Strain/Sex: F344/MALE, Target Tissue: Type of Lesion: URINARY BLADDER: CARCINOMA): 7%, 0%, 100%, not significant
- tumour outcome (control, treated, inhibition, significance) (N-METHYL-NITROSOUREA, DIMETHYLH, N-METHYL-NITROSOUREA, DIMETHYLH, 1% IN THE DIET FOR 30 DAYS BEGINNING 1 DAY PRIOR TO CARCINOGEN TREATMENT (STUDY DURATION: 28 WK), Strain/Sex: F344/MALE, Target Tissue: Type of Lesion: LARGE INTESTINE: ADENOMA, Dose [Carcinogen]: 100 MG/KG BW DEN ONCE FOLLOWED BY 20 MG/KG BW MNU 4 TIMES AND 0.05% BBN IN DRINKING WATER DURING FIRST 2 WK THEN 40 MG/K, Promoter: NONE USED): 27%, 29%, -7%, not significant
